According to PubChem BioAssay AID1605 (NINDS Approved Drug Screening Program, 2009):

tested on: Cells expressing FALS mutant SOD1, cell death protection; experiment: cytoprotection in mutant SOD1 ALS cell model – familial ALS SOD1 mutant (AID 1605)

Compound	EC50 [µM]
CC(NC(=O)C(NC(=O)OCc1ccccc1)C(C)C)C(=O)NC(CC(=O)O)C(=O)OC(F)F (configuration not stated)	916
O=C(O)CCC(=O)OC[C@@H](NC(=O)C(Cl)Cl)[C@H](O)c1ccc([N+](=O)[O-])cc1	1.1
COc1ccc2[nH]cc(CCNC(C)=O)c2c1	178
CN1C(=O)CN=C(c2ccccc2)c2cc(Cl)ccc21	118
CC(CCc1ccccc1)NC(C)C(O)c1ccc(O)cc1 (configuration not stated)	76.9
NC(=O)NC1NC(=O)NC1=O (configuration not stated)	0.0224
CN1CC[C@]23c4c5ccc(O)c4O[C@H]2C(=O)CCC3[C@H]1C5 (some centres not stated)	3410
C[C@H]1C(=O)O[C@@H]2CCN3CC=C(COC(=O)[C@](C)(O)[C@]1(C)O)[C@H]23	239
CN(C)c1ccc(O)c2c1C[C@H]1C[C@H]3[C@H](N(C)C)C(=O)C(C(N)=O)=C(O)[C@@]3(O)C(=O)C1=C2O	14.4
CCCC(C)C1(CC)C(=O)N=C(S)NC1=O (configuration not stated)	29.9
O=[N+]([O-])c1cc([As](=O)(O)O)ccc1O	71.9
O=c1cc(-c2ccccc2)oc2cc(O)cc(O)c12	6.47
COC(=O)/C(=C1\OC(=O)C(c2ccccc2)C1=O)c1ccccc1 (configuration not stated)	3940
CN(C)/N=N/c1nc[nH]c1C(N)=O	82
O=C(OCC(O)CO)c1ccccc1Nc1ccnc2cc(Cl)ccc12 (configuration not stated)	3200
C1CNCCN1	7130
CCn1cc(C(=O)O)c(=O)c2cc3c(cc21)OCO3	2.38
Cc1ccc(C(=O)C(C)CN2CCCCC2)cc1 (configuration not stated)	19.1
CCC1(c2ccccc2)C(=O)NCNC1=O	741

Compound	EC50 [µM]
CC[C@@H]1C(=O)OC[C@@H]1Cc1cncn1C	3060
COc1cc(C)c2c(=O)cc(-c3ccccc3)oc2c1	45.8
Nc1nc2ncc(CNc3ccc(C(=O)N[C@@H](CCC(=O)O)C(=O)O)cc3)nc2c(=O)[nH]1	785
NC[C@H]1O[C@H](O[C@H]2C(O[C@@H]3O[C@H](CO)[C@@H](O)[C@H]3O)[C@@H](O)[C@H](N)C[C@@H]2N)[C@H](N)[C@@H](O)[C@@H]1O (some centres not stated)	5790
CCC(=O)c1c(O)cc(O)cc1O	157
NCCC(O)C(=O)N[C@@H]1C[C@H](N)[C@@H](O[C@H]2O[C@H](CN)[C@@H](O)[C@H](O)[C@H]2N)[C@H](OC2O[C@H](CO)[C@H](O)[C@H]2O)[C@H]1O (some centres not stated)	0.2
COC(=O)C1=C(C)NC(C)=C(C(=O)OC)C1c1ccccc1[N+](=O)[O-]	28.9
CCCC(=O)Nc1ccc(OCC(O)CNC(C)C)c(C(C)=O)c1 (configuration not stated)	48.8
CC[C@@H](CO)NC(=O)[C@@H]1C=C2c3cccc4[nH]cc(c34)C[C@H]2N(C)C1	2890
CN[C@@H]1[C@H](O)[C@H](NC)[C@H]2O[C@@]3(O)C(=O)C[C@@H](C)O[C@H]3OC2[C@H]1O (some centres not stated)	0.0222
Oc1cc(O)c2c(c1)O[C@H](c1ccc(O)c(O)c1)[C@@H](O)C2	73.1
C[C@]12C=CC(=O)C=C1CCC1C2C(=O)C[C@@]2(C)C1CC[C@]2(O)C(=O)CO (some centres not stated)	2610
O=C1O[C@@H](CO)[C@H](O)[C@@H](O)[C@@H]1O	9.33
CC(N)Cc1ccc2c(c1)OCO2 (configuration not stated)	2120
CC(C)CC1NC(=O)CNC1=O (configuration not stated)	0.0222
NCC(CC(=O)O)c1ccc(Cl)cc1 (configuration not stated)	0.38
Cc1cc(C2CCCCC2)n(O)c(=O)c1	30.9
CC/C(=C(/CC)c1ccc(O)cc1)c1ccc(O)cc1	0.0327
